In general, Ki refers to the dissociation constant of the complex between target and ligand, obtained from inhibition or displacement. Low values mean higher affinity, high ones lower affinity.

This passage reports Ki results from doi:10.1101/2021.12.08.471775v2 (biorxiv, 2022).

The target of this test is α4β2Rs (rat α4β2 nAChRs) (Rattus norvegicus, UniProt P09483+P12390). Type of test: cell-based.
α4β2Rs (rat α4β2 nAChRs), sequence (P09483 31-630): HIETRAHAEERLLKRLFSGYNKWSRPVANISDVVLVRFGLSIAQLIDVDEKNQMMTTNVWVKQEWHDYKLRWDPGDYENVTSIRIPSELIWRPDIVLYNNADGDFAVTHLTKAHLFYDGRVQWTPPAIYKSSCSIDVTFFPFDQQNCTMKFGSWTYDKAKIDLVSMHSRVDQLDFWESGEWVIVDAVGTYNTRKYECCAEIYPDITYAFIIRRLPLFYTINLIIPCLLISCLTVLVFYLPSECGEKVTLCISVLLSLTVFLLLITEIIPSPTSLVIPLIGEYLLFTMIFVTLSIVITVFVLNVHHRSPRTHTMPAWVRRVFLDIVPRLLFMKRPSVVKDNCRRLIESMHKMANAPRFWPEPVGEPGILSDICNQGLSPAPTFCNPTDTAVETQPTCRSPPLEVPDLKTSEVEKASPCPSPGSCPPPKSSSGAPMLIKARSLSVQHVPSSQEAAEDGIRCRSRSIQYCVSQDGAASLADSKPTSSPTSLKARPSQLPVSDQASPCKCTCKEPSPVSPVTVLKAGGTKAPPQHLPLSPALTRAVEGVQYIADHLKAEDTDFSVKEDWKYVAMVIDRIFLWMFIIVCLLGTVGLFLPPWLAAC
α4β2Rs (rat α4β2 nAChRs), sequence (P12390 25-500): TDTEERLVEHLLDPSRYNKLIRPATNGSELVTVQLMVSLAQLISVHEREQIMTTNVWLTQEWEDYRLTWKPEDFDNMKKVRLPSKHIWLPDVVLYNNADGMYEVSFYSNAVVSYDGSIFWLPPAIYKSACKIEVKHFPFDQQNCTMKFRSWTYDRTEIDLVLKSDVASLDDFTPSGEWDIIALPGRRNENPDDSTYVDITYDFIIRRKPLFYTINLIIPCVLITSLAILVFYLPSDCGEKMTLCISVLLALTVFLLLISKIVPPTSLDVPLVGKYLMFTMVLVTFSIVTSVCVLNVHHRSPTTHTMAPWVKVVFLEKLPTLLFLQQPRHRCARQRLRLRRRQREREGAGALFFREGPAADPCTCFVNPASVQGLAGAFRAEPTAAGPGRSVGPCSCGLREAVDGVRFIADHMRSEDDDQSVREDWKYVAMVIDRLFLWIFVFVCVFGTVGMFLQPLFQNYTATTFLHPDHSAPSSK

Molecule `Fc1ncccc1OC[C@@H]1C=CCN1` [Nifene] displayed a Ki of 0.31 nM.
